Measurements published in patent US20190071670A1, “Methods Of Treatment For Alpha-1 Antitrypsin Deficiency” (Arrowhead Pharmaceuticals, Inc., priority 2016, published 2019).
Read-outs that look alike come from different tables or passages of the source.

System: AAT
Conditions: cynomolgus macaque
Procedure: MLP delivery polymer and Duplex Pair SEQ ID NO: 5/6 (AAT RNAi agent) were made and combined in a pharmaceutically acceptable buffer. On day 1, cynomolgus macaque (Macaca fascicularis) primates (male and female, 3 to 9 kg) were co-injected with MLP delivery polymer and Duplex Pair SEQ ID NO: 5/6 at different dose combinations. The dose combinations injected were: 2.0 mg/kg MLP delivery polymer+4.0 AAT RNAi agent (n=3), 3 mg/kg MLP delivery polymer+1.5 mg/kg AAT RNAi agent (n=2), 3.0 mg/kg MLP delivery polymer+3.0 mg/kg AAT RNAi agent (n=3), 3.0 mg/kg MLP delivery polymer+6.0 mg/kg AAT RNAi agent (n=2), 6.0 mg/kg MLP delivery polymer+12 mg/kg AAT RNAi trigger (n=3) ([…] conversion factor used to determine RNAi agent concentration) and 12 mg/kg MLP delivery polymer+6.0 mg/kg AAT RNAi agent (n=12). For each injection the MLP delivery polymer+AAT RNAi agent (2 ml/kg) was injected into the saphenous vein using a 22 to 25 gauge intravenous catheter. At the indicated time points, blood samples were drawn and analyzed for AAT and toxicity markers. Blood was collected from the femoral vein and primates were fasted overnight before all blood collections. Blood tests for blood urea nitrogen (BUN), alanine transaminase (ALT), aspartate aminotransferase (AST), and creatinine were performed on an automated chemistry analyzer at Meriter laboratories or BASi. AAT levels were determined on a Cobas Integra 400 (Roche Diagnostics) according to the manufacturer's recommendations.
Cynomolgus macaque primates were given five doses of AAT RNAi trigger+MLP delivery polymer at six week intervals. Each dose contained MLP delivery polymer and Duplex Pair SEQ ID NO: 5/6 (AAT RNAi agent) at a 1:2 weight to weight ratio of the MLP to RNAi agent. The first injection was on day 1. The dose combinations injected were: 2.0 mg/kg MLP delivery polymer+4.0 AAT RNAi agent (n=2) and 3 mg/kg MLP delivery polymer+6 mg/kg AAT RNAi agent (n=2). Blood was collected at intervals throughout the study and AAT levels were measured from the serum as described.

For “Duplex Pair SEQ ID NO: 5/6: double-stranded AAT RNAi agent: modified antisense strand SEQ ID NO: 5 annealed to Chol-TEG sense strand SEQ ID NO: 6 (antisense TGGAACUUGGUGAUGAUAUTT; sense UAUAUAUCAUCACCAAGUUCCAT; Chol-TEG on sense strand; chemical modifications; antisense strand of dsRNA; modified_base 7 /mod_base = “2′-3′ seco corresponding nucleotide”; modified_base 2,4,6,8,10,12,14,16,18 /mod_base = “2′-deoxy-2′-fluoro corresponding nucleoside”; modified_base 3,5,9,11,13,15,17,19 /mod_base = “2′-O-methyl corresponding nucleoside”; modified_base 21 /mod_base = “5′-phosphorothioate corresponding nucleotide”; sense strand of dsRNA; modified_base 2 /mod_base = “2′-hydroxy corresponding nucleoside”; modified_base 4,6,8,10,12,14,16,18,20,22 /mod_base = “2′-deoxy-2′-fluoro corresponding nucleoside”; …)”, the “Serum AAT levels measured six weeks after each treatment” value (2.0 mg/kg MLP delivery polymer + 4.0 AAT RNAi agent, five doses at six week intervals) was “rebounded less with each additional treatment”, the “Serum AAT reduced” value (2.0 mg/kg MLP delivery polymer + 4.0 AAT RNAi agent, six week intervals, following the fourth treatment) was 85% and the “Serum AAT reduced” value (2.0 mg/kg MLP delivery polymer + 4.0 AAT RNAi agent, following the first treatment) was 80%. For the same substance, the “knockdown of AAT” value (all dose combinations with MLP delivery polymer) was “Significant knockdown”, the “Percent AAT Knockdown in NHPs” value (co-injection MLP 2.0 mg/kg + SEQ ID 5/6 4.0 mg/kg on day 1, Day 2) was 11% and the “Percent AAT Knockdown in NHPs” value (co-injection MLP 2.0 mg/kg + SEQ ID 5/6 4.0 mg/kg on day 1, Day 3) was 27%. For the same substance, the “Percent AAT Knockdown in NHPs” value (co-injection MLP 2.0 mg/kg + SEQ ID 5/6 4.0 mg/kg on day 1, Day 8) was 63%, the “Percent AAT Knockdown in NHPs” value (co-injection MLP 2.0 mg/kg + SEQ ID 5/6 4.0 mg/kg on day 1, Day 11) was 73% and the “Percent AAT Knockdown in NHPs” value (co-injection MLP 2.0 mg/kg + SEQ ID 5/6 4.0 mg/kg on day 1, Day 15) was 81%. For the same substance, the “Percent AAT Knockdown in NHPs” value (co-injection MLP 2.0 mg/kg + SEQ ID 5/6 4.0 mg/kg on day 1, Day 22) was 85%, the “Percent AAT Knockdown in NHPs” value (co-injection MLP 2.0 mg/kg + SEQ ID 5/6 4.0 mg/kg on day 1, Day 29) was 80% and the “Percent AAT Knockdown in NHPs” value (co-injection MLP 2.0 mg/kg + SEQ ID 5/6 4.0 mg/kg on day 1, Pretest) was 0%. The “Percent AAT Knockdown in NHPs” value (co-injection MLP 3.0 mg/kg + SEQ ID 5/6 1.5 mg/kg on day 1, Day 2) was 16%, the “Percent AAT Knockdown in NHPs” value (co-injection MLP 3.0 mg/kg + SEQ ID 5/6 1.5 mg/kg on day 1, Day 3) was 30% and the “Percent AAT Knockdown in NHPs” value (co-injection MLP 3.0 mg/kg + SEQ ID 5/6 1.5 mg/kg on day 1, Day 8) was 59%. For the same substance, the “Percent AAT Knockdown in NHPs” value (co-injection MLP 3.0 mg/kg + SEQ ID 5/6 1.5 mg/kg on day 1, Day 11) was 70%, the “Percent AAT Knockdown in NHPs” value (co-injection MLP 3.0 mg/kg + SEQ ID 5/6 1.5 mg/kg on day 1, Day 15) was 74% and the “Percent AAT Knockdown in NHPs” value (co-injection MLP 3.0 mg/kg + SEQ ID 5/6 1.5 mg/kg on day 1, Day 22) was 76%. For the same substance, the “Percent AAT Knockdown in NHPs” value (co-injection MLP 3.0 mg/kg + SEQ ID 5/6 1.5 mg/kg on day 1, Day 29) was 74%, the “Percent AAT Knockdown in NHPs” value (co-injection MLP 3.0 mg/kg + SEQ ID 5/6 1.5 mg/kg on day 1, Day 36) was 70% and the “Percent AAT Knockdown in NHPs” value (co-injection MLP 3.0 mg/kg + SEQ ID 5/6 1.5 mg/kg on day 1, Day 43) was 63%. For the same substance, the “Percent AAT Knockdown in NHPs” value (co-injection MLP 3.0 mg/kg + SEQ ID 5/6 1.5 mg/kg on day 1, Day 50) was 51%, the “Percent AAT Knockdown in NHPs” value (co-injection MLP 3.0 mg/kg + SEQ ID 5/6 1.5 mg/kg on day 1, Pretest) was 0% and the “Percent AAT Knockdown in NHPs” value (co-injection MLP 3.0 mg/kg + SEQ ID 5/6 3.0 mg/kg on day 1, Day 2) was 15%. The “Percent AAT Knockdown in NHPs” value (co-injection MLP 3.0 mg/kg + SEQ ID 5/6 3.0 mg/kg on day 1, Day 3) was 29%, the “Percent AAT Knockdown in NHPs” value (co-injection MLP 3.0 mg/kg + SEQ ID 5/6 3.0 mg/kg on day 1, Day 8) was 63% and the “Percent AAT Knockdown in NHPs” value (co-injection MLP 3.0 mg/kg + SEQ ID 5/6 3.0 mg/kg on day 1, Day 11) was 74%. The “Percent AAT Knockdown in NHPs” value (co-injection MLP 3.0 mg/kg + SEQ ID 5/6 3.0 mg/kg on day 1, Day 15) was 82%, the “Percent AAT Knockdown in NHPs” value (co-injection MLP 3.0 mg/kg + SEQ ID 5/6 3.0 mg/kg on day 1, Day 22) was 88% and the “Percent AAT Knockdown in NHPs” value (co-injection MLP 3.0 mg/kg + SEQ ID 5/6 3.0 mg/kg on day 1, Day 29) was 85%. For the same substance, the “Percent AAT Knockdown in NHPs” value (co-injection MLP 3.0 mg/kg + SEQ ID 5/6 3.0 mg/kg on day 1, Pretest) was 0%, the “Percent AAT Knockdown in NHPs” value (co-injection MLP 3.0 mg/kg + SEQ ID 5/6 6.0 mg/kg on day 1, Day 2) was 10% and the “Percent AAT Knockdown in NHPs” value (co-injection MLP 3.0 mg/kg + SEQ ID 5/6 6.0 mg/kg on day 1, Day 3) was 25%. The “Percent AAT Knockdown in NHPs” value (co-injection MLP 3.0 mg/kg + SEQ ID 5/6 6.0 mg/kg on day 1, Day 8) was 63%, the “Percent AAT Knockdown in NHPs” value (co-injection MLP 3.0 mg/kg + SEQ ID 5/6 6.0 mg/kg on day 1, Day 11) was 74% and the “Percent AAT Knockdown in NHPs” value (co-injection MLP 3.0 mg/kg + SEQ ID 5/6 6.0 mg/kg on day 1, Day 15) was 82%. For the same substance, the “Percent AAT Knockdown in NHPs” value (co-injection MLP 3.0 mg/kg + SEQ ID 5/6 6.0 mg/kg on day 1, Pretest) was 0%, the “Percent AAT Knockdown in NHPs” value (co-injection MLP 6.0 mg/kg + SEQ ID 5/6 12.0 mg/kg on day 1, Day 2) was 18% and the “Percent AAT Knockdown in NHPs” value (co-injection MLP 6.0 mg/kg + SEQ ID 5/6 12.0 mg/kg on day 1, Day 3) was 30%. For the same substance, the “Percent AAT Knockdown in NHPs” value (co-injection MLP 6.0 mg/kg + SEQ ID 5/6 12.0 mg/kg on day 1, Day 8) was 61%, the “Percent AAT Knockdown in NHPs” value (co-injection MLP 6.0 mg/kg + SEQ ID 5/6 12.0 mg/kg on day 1, Pretest) was 0% and the “Percent AAT Knockdown in NHPs” value (co-injection MLP 12.0 mg/kg + SEQ ID 5/6 6.0 mg/kg on day 1, Day 2) was 3%. The “Percent AAT Knockdown in NHPs” value (co-injection MLP 12.0 mg/kg + SEQ ID 5/6 6.0 mg/kg on day 1, Day 3) was 19%, the “Percent AAT Knockdown in NHPs” value (co-injection MLP 12.0 mg/kg + SEQ ID 5/6 6.0 mg/kg on day 1, Day 8) was 60% and the “Percent AAT Knockdown in NHPs” value (co-injection MLP 12.0 mg/kg + SEQ ID 5/6 6.0 mg/kg on day 1, Day 11) was 84%. For the same substance, the “Percent AAT Knockdown in NHPs” value (co-injection MLP 12.0 mg/kg + SEQ ID 5/6 6.0 mg/kg on day 1, Day 15) was 88%, the “Percent AAT Knockdown in NHPs” value (co-injection MLP 12.0 mg/kg + SEQ ID 5/6 6.0 mg/kg on day 1, Day 26) was 91% and the “Percent AAT Knockdown in NHPs” value (co-injection MLP 12.0 mg/kg + SEQ ID 5/6 6.0 mg/kg on day 1, Day 33) was 86%. For the same substance, the “Percent AAT Knockdown in NHPs” value (co-injection MLP 12.0 mg/kg + SEQ ID 5/6 6.0 mg/kg on day 1, Day 47) was 76%, the “Percent AAT Knockdown in NHPs” value (co-injection MLP 12.0 mg/kg + SEQ ID 5/6 6.0 mg/kg on day 1, Pretest) was 0% and the “serum AAT levels reduced” value (repeat dosing at six week intervals, 3 mg/kg MLP delivery polymer + 6 mg/kg, from two to thirty weeks after the first treatment) was 80-90%.
